Experimental data from patent US20260132129A1 (Genesis Therapeutics, Inc., priority 2022, published 2026).

Target: T1, PI3Kα H1047R (T47D cells) (Homo sapiens, UniProt P42336, H1047R)
T1 construct: endogenous in cells; host or cells: T47D cells
Experiment: PI3Kα cellular assay: pAKT HTRF in T47D cells after EGF stimulation
Format: cell-based
Conditions: for IC50: T47D cells (PI3Kα H1047R), pAKT S473 HTRF
In short: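 T47D cells (PIK3CA H1047R) serum-starved 16 h, then treated 1 h at 37 °C with compound (10,000 nM top, 3-fold steps to 0.5 nM). After 10 min stimulation with 20 ng/mL EGF, cells were lysed and pAKT measured by HTRF.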

[1] = 1 hr compound, 20 ng/ml EGF 10 min
[2] = selectivity T47D (H1047R) over SKBR3 (WT), pAKT HTRF
[3] = selectivity of T47D (H1047R) over SKBR3 (WT) pAKT IC50

T1 sequence (P42336 whole entry H1047R): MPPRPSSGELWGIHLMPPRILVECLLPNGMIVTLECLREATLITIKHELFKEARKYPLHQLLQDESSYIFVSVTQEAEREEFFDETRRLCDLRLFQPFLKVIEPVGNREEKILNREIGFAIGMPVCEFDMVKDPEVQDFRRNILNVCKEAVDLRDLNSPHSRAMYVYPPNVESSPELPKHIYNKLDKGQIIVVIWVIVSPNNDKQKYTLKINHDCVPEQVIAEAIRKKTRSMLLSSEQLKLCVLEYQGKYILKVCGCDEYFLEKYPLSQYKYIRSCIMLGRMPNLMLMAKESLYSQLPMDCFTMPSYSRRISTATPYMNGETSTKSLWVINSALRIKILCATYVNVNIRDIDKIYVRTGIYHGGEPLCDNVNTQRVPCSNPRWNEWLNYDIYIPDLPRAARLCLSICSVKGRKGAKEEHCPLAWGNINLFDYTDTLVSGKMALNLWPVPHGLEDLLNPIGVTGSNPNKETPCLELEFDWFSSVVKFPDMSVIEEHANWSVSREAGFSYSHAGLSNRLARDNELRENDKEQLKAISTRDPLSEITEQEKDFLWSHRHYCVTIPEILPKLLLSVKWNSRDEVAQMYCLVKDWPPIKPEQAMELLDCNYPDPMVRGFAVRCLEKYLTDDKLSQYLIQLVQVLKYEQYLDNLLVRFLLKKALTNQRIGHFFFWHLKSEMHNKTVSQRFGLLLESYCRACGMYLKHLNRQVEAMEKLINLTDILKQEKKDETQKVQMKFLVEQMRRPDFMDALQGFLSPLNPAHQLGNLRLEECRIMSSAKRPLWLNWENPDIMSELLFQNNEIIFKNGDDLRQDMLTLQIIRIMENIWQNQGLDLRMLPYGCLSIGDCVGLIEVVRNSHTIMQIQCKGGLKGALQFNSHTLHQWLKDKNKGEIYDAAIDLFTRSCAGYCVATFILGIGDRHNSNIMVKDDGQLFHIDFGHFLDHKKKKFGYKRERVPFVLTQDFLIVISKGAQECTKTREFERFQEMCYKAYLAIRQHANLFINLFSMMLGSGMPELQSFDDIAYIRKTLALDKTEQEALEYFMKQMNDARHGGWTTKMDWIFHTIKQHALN
T1 sequence (P27986 whole entry partner): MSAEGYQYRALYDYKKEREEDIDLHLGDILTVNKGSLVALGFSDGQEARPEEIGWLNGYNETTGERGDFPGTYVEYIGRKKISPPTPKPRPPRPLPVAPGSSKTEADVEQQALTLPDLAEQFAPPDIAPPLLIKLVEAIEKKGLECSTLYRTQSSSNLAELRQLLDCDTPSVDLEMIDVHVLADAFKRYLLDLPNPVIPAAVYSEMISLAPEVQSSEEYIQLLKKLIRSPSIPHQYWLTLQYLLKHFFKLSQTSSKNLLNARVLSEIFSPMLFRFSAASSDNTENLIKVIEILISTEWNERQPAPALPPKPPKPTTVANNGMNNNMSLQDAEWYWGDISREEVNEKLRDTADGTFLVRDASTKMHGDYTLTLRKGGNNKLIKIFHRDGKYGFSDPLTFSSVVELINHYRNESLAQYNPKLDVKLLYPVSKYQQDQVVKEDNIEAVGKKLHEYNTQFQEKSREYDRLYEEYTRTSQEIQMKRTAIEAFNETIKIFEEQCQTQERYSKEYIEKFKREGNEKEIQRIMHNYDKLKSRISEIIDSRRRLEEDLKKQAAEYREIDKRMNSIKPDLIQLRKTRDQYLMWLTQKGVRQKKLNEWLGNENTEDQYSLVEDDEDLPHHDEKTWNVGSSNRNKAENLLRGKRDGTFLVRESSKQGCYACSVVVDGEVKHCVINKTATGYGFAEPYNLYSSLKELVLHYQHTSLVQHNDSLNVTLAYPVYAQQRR

Structure (SMILES) | IC50 [1] [nM] | T47D pAKT S473 HTRF IC50 (H1047R): T47D (H1047R) selectivity over SKBR3 (WT) [2] | IC50 (EGF stimulation) [nM] | T47D pAKT S473 HTRF IC50 (H1047R): T47D (H1047R) selectivity over SKBR3 (WT) [3]
Cc1cc([C@H](C)Nc2ccccc2C(=O)O)c2nc(C3CCC(C)(C)CC3)cc(=O)n2c1 [Compound 624] | > 2000 | C (C denotes ≤5-fold) | – | –
Cc1cc(C(C)Nc2ccccc2C(=O)O)c2nc(N3CCN(C(=O)CCN)CC3)cc(=O)n2c1 (centres unmarked) [Compound 529] | > 2000 | C (C denotes ≤5-fold) | – | –
Cc1cc([C@@H](C)Nc2ccccc2C(=O)O)c2nc(-c3ccc(Cl)cc3F)c(C)c(=O)n2c1 [Compound 1069] | – | A (A denotes >20-fold) | < 100 | –
Cc1cc(C(C)Nc2ccccc2C(=O)O)c2nc(C3CCCOC3)c(C#N)c(=O)n2c1 (centres unmarked) [Compound 1353] | – | A (A denotes >20-fold) | 100 to 500 | –
Cc1cc([C@H](C)Nc2ccccc2)c2nc(-c3ccc(F)cc3)c(C)c(=O)n2c1 [Compound 1124] | – | C (C denotes ≤5-fold) | > 2000 | –
Cc1cc([C@@H](C)N[C@H](C(=O)O)c2ccccc2)c2nc(N3CCOCC3)cc(=O)n2c1 [Compound 648] | – | – | > 2000 | C (C denotes ≤5-fold)
Cc1cc(C(C)Nc2ccccc2-c2ccnnc2)c2nc(N3Cc4ccccc4C3)cc(=O)n2c1 (centres unmarked) [Compound 665, 2-(isoindolin-2-yl)-7-methyl-9-(1-((2-(pyridazin-4-yl)phenyl)amino)ethyl)-4H-pyrido[1,2-a]pyrimidin-4-one] | – | – | 100 to 500 | A (A denotes >20-fold)
Cc1cc([C@@H](C)Nc2ccccc2C(=O)O)c2nc(-c3cnc4c(c3)c(C)nn4C)cc(=O)n2c1 (single isomer, unassigned) [Compound 696] | – | – | < 100 | A (A denotes >20-fold)
C=CC(=O)Nc1ccc(C(=O)O)c(N[C@H](C)c2cc(C)cn3c(=O)cc(N4CCOCC4)nc23)c1 [Compound 872] | – | – | > 2000 | C (C denotes ≤5-fold)
Cc1cc([C@@H](C)Nc2cccc(C)c2C(=O)O)c2nc(C3CCOCC3)cc(=O)n2c1 [Compound 330] | > 2000 | C (C denotes ≤5-fold) | – | –
Cc1cc([C@H](C)Nc2ccccc2C(N)=O)c2nc(-c3cccc(C#N)c3)c(C)c(=O)n2c1 [Compound 1138] | – | C (C denotes ≤5-fold) | > 2000 | –
Cc1cc([C@@H](C)Nc2ccccc2C(=O)O)c2nc(C3CCN(S(N)(=O)=O)CC3)cc(=O)n2c1 [Compound 755] | – | – | > 2000 | C (C denotes ≤5-fold)
Cc1cc([C@@H](C)Nc2ccccc2S(=O)(=O)O)c2nc(-c3ccc(C4CC4)cc3)c(C3CC3)c(=O)n2c1 [Compound 1274] | – | A (A denotes >20-fold) | 100 to 500 | –
Cc1cc(C(C)Nc2ccccc2C(=O)O)c2nc(-c3ccc(C4CCN(C(=O)C5CC5)CC4)c(F)c3)c(C)c(=O)n2c1 (centres unmarked) [Compound 1300] | – | A (A denotes >20-fold) | < 100 | –
Cc1cc(C(C)Oc2ccccc2C(=O)O)c2nc(-c3cccc(F)c3)c(C)c(=O)n2c1 (centres unmarked) [Compound 1337] | – | C (C denotes ≤5-fold) | – | –
Cc1cccc(-c2nc3c(C(C)Nc4ccccc4C(=O)CS(=O)(=O)N(C)C)cc(C)cn3c(=O)c2C)c1 (centres unmarked) [Compound 1321] | – | B (B denotes 20-fold≥value>5-fold) | – | –
Cc1cc([C@@H](C)Nc2ccccc2S(N)(=O)=O)c2nc(N3C[C@@H](C)O[C@@H](C)C3)cc(=O)n2c1 (single isomer, unassigned) [Compound 730] | – | – | < 100 | A (A denotes >20-fold)
CC#Cc1nc2c([C@H](C)Nc3ccccc3C(=O)O)cc(C)cn2c(=O)c1C [Compound 1206] | – | B (B denotes 20-fold≥value>5-fold) | 500 to 2000 | –
Cc1cc([C@@H](C)Nc2ccccc2C(=O)O)c2nc(-c3ccc(Cl)cc3F)c(C)c(=O)n2c1 (single isomer, unassigned) [Compound 965] | – | – | < 100 | A (A denotes >20-fold)
Cc1cc(C(C)Nc2ccccc2-c2ccnnc2)c2nc(N3CC(C)OC(C)C3)cc(=O)n2c1 (centres unmarked) [Compound 698] | – | – | – | C (C denotes ≤5-fold)
Cc1cc([C@@H](C)Nc2ccccc2C(=O)O)c2nc(-c3ccc4snc(N)c4c3)cc(=O)n2c1 [Compound 809] | – | – | < 100 | A (A denotes >20-fold)

Structure (SMILES) | IC50 [1] [nM] | T47D pAKT S473 HTRF IC50 (H1047R): T47D (H1047R) selectivity over SKBR3 (WT) [2] | IC50 (EGF stimulation) [nM] | T47D pAKT S473 HTRF IC50 (H1047R): T47D (H1047R) selectivity over SKBR3 (WT) [3]
COc1ccc(-c2nc3c([C@@H](C)Nc4ccccc4C(=O)O)cc(C)cn3c(=O)c2C)cc1 [Compound 1070] | – | A (A denotes >20-fold) | < 100 | –
Cc1cc(C(C)Nc2ccccc2C(=O)O)c2nc(-c3ccc(C4CCNCC4)nc3)c(C)c(=O)n2c1 (centres unmarked) [Compound 1302] | – | C (C denotes ≤5-fold) | > 2000 | –
C=C(C)Nc1nn(C)c2ccc(-c3cc(=O)n4cc(C)cc([C@H](C)Nc5ccccc5C(=O)O)c4n3)cc12 [Compound 794] | – | – | 100 to 500 | A (A denotes >20-fold)
Cc1cc(C(C)Nc2ccccc2C(=O)O)c2nc(Nc3ccc(C(=O)O)cc3)cc(=O)n2c1 (centres unmarked) [Compound 369] | > 2000 | C (C denotes ≤5-fold) | – | –
Cc1cc(C(C)Nc2ccccc2C(=O)O)c2nc(OC3CCCOC3)c(C)c(=O)n2c1 (centres unmarked) [Compound 1254] | – | A (A denotes >20-fold) | 100 to 500 | –
Cc1cc([C@H](C)Nc2ccccc2-c2ccnnc2)c2nc(N3C[C@@H](C)O[C@@H](C)C3)cc(=O)n2c1 [Compound 700] | – | – | – | A (A denotes >20-fold)
Cc1cc(C(C)Nc2ccccc2C2(O)COC2)c2nc(-c3cccc(F)c3)c(C)c(=O)n2c1 (centres unmarked) [Compound 1389, 2-(3-fluorophenyl)-9-(1-((2-(3-hydroxyoxetan-3-yl)phenyl)amino)ethyl)-3,7-dimethyl-4H-pyrido[1,2-a]pyrimidin-4-one] | – | B (B denotes 20-fold≥value>5-fold) | 500 to 2000 | –
Cc1cc([C@H](C)Nc2ccccc2C(=O)O)c2nc(-c3ccc(CC4CCN(C(=O)C5CC5)CC4)c(F)c3)c(C)c(=O)n2c1 [Compound 1075] | – | C (C denotes ≤5-fold) | > 2000 | –
Cc1cc([C@@H](C)Nc2ccccc2C(=O)O)c2nc(-c3ccc(-c4ccc5c(c4)CCO5)c(F)c3)c(C)c(=O)n2c1 [Compound 1268] | – | A (A denotes >20-fold) | < 100 | –
Cc1cc([C@H](C)Oc2ccccc2C2(O)CS(=O)(=O)C2)c2nc(-c3cccc(F)c3)c(C)c(=O)n2c1 (single isomer, unassigned) [Compound 1393] | – | A (A denotes >20-fold) | < 100 | –
Cc1cc(C(C)Nc2ccccc2-c2ccnnc2)c2nc(-c3ccc(C)c(Cl)c3)c(C)c(=O)n2c1 (centres unmarked) [Compound 1140] | – | A (A denotes >20-fold) | – | –
Cc1cc([C@H](C)Nc2ccccc2C(=O)O)c2nc(-c3ccc4c(c3)c(C)nn4C)cc(=O)n2c1 (single isomer, unassigned) [Compound 740] | – | – | < 100 | A (A denotes >20-fold)
Cc1cc([C@H](C)Nc2ccccc2S(N)(=O)=O)c2nc([C@@H]3CCCOC3)c(C)c(=O)n2c1 [Compound 1285] | – | A (A denotes >20-fold) | < 100 | –
Cc1cc(C(C)CNc2ccccc2C(=O)O)c2nc(N3CCOCC3)cc(=O)n2c1 (centres unmarked) [Compound 929] | – | – | > 2000 | C (C denotes ≤5-fold)
Cc1cc([C@@H](C)Nc2ccccc2C(=O)O)c2nc(-c3ccc(F)c(C#N)c3)c(C)c(=O)n2c1 (single isomer, unassigned) [Compound 947] | – | – | < 100 | A (A denotes >20-fold)
Cc1cc(C(C)Nc2ccccc2C(=O)O)c2nc(-c3ccc4c(c3)c(N)nn4C)cc(=O)n2c1 (single isomer, unassigned) [Compound 535] | > 2000 | C (C denotes ≤5-fold) | – | –
CNc1nn(C)c2ccc(-c3cc(=O)n4cc(C)cc([C@@H](C)Nc5ccccc5C(=O)O)c4n3)cc12 [Compound 767] | – | – | < 100 | A (A denotes >20-fold)
Cc1cc(C(C)Nc2ccccc2C(=O)O)c2nc(N3CCN(C(C)(C)C(N)=O)CC3)cc(=O)n2c1 (centres unmarked) [Compound 554] | > 2000 | C (C denotes ≤5-fold) | – | –
Cc1cc([C@H](C)Nc2ccccc2C(=O)O)c2nc(-c3ccccc3)cc(=O)n2c1 [Compound 423] | – | C (C denotes ≤5-fold) | – | –
Cc1cc(C(C)Nc2ccccc2S(C)(=O)=O)c2nc(N3CCOCC3)cc(=O)n2c1 (centres unmarked) [Compound 134] | – | B (B denotes 20-fold≥value>5-fold) | – | –
Cc1cc(C(C)Nc2ccccc2S(N)(=O)=O)c2nc(-c3ccc(F)cc3)cc(=O)n2c1 (centres unmarked) [Compound 585] | > 2000 | C (C denotes ≤5-fold) | – | –
